This is an account of results in ChEMBL document CHEMBL1129376, “Localizing antithrombotic and vasodilatory activity with a novel, ultrafast nitric oxide donor” (J Med Chem, 1996).

Data set [1] has as its system Ovis aries. The experiment in a line: Intravenous dose of compound that lowered pulmonary arterial pressure (PAP) in ovine pulmonary hypertension model; Range is 0.8-13 nM/kg min. In kind it is functional, organism-based. The conditions noted are these: Artery.
The test system of data set [2] is Ovis aries. Nature of the data set: Intravenous dose of compound that lowered systemic arterial pressure (SAP) in ovine pulmonary hypertension model; Range is 0.8-13 nM/kg min. The conditions noted are these: Artery. In kind it is functional, organism-based.
The nature of data set [3]: Half life of compound for dissociation in DETA and NO. In kind it is ADME.
For data set [4], the system named is Ovis aries. Nature of the data set: Pulmonary arterial pressure (PAP) in sheep on i.v. administration of 24 nM/ kg min. In kind it is functional, Artery.
Data set [5] in a line: Rate constant of compound for dissociation in proline and NO. It counts as ADME.
A short description of data set [6]: Half life of compound for dissociation in proline and NO. In kind it is ADME.
Data set [7] has as its system Ovis aries. Nature of the data set: Intravenous dose of compound that lowered systemic arterial pressure following in ovine pulmonary hypertension model. It counts as functional, Artery.
For data set [8], the system named is Ovis aries. The experiment in a line: Intravenous dose that lowered pulmonary arterial pressure withouteffect on systemic hemodynamics in sheep with drug-induced pulmonary hypertension. It counts as functional, Artery.

For the compound SODIUM NITROPRUSSIDE, the Dose (nM min-1 kg-1) in the data set with Ovis aries [1] and in the data set with Ovis aries [2] was 13 throughout.
A word on the half-life: it is how long it takes for the measured level to halve. A high value points to slow decline. Take `NCCN(CCN)/[N+]([O-])=N/O`: the half-life in data set [3] is 20 h.
`O=C([O-])[C@H]1CCCN1/[N+]([O-])=N/[O-].[Na+].[Na+]` gave a PAP in the data set with Ovis aries [4] of 9 mmHg. In data set [5], the Rate constant was 0.39 s⁻¹. Further, the T1/2 in data set [6] is recorded as 1.8 s. The Dose is 48 nM/min/kg with Ovis aries [7] and 24 nM/min/kg in the data set with Ovis aries [8].
